The series is described as follows: solvent given as SMILES.
[1] abbreviates: in CC(C)CCCC(C)CCCC(C)CCCCC(C)CCCC(C)CCCC(C)C.

Molecules are shown by their SMILES.

Turning to `COC(=O)c1ccccc1`, the “solvation free energy, 298 K” value (in CC(C)CC(C)(C)C) was -6.71 kcal/mol and the “solvation free energy, 298 K” value (in O) is -3.91 kcal/mol.
Turning to `CC1=CCC23CC1C(C)(C)C2CCC3C` (stereo unspecified), for the setting “in O”, the “solvation free energy, 298 K” value was found to be 0.78 kcal/mol.
As to `c1ccc2c(c1)Oc1ccccc1O2`, the “solvation free energy, 298 K” value (in O) was -3.15 kcal/mol.
Consider `C=C(C)C1CC=C(C)C(OC=O)C1` (stereo unspecified), for which, under “in O”, the “solvation free energy, 298 K” value was -3.82 kcal/mol.
The same measure, in the same setting: the value for `CCCCCCCC(C)O` (stereo unspecified) was -3.57 kcal/mol.
As to `C1CCCC1`, the “solvation free energy, 298 K” value (in CC#N) is -2.52 kcal/mol; the “solvation free energy, 298 K” value under setting [1] is -3.23 kcal/mol; the “solvation free energy, 298 K” value (in CC(C)O) was -2.89 kcal/mol; the “solvation free energy, 298 K” value (in CCCC#N) was -2.86 kcal/mol; the “solvation free energy, 298 K” value (in CCCCCC) is -3.7 kcal/mol; the “solvation free energy, 298 K” value (in CCCCCCCCCC) is -3.46 kcal/mol. Further, the “solvation free energy, 298 K” value runs as follows: (in CCCCCCCCCCCC) -3.37 kcal/mol; (in CCCCCCCCCCCCCCCC) -3.31 kcal/mol; (in CCCCCCCO) -3.1 kcal/mol; (in CCCO) -2.89 kcal/mol; (in CCO) -2.78 kcal/mol; (in CN1CCCC1=O) -2.7 kcal/mol. Moreover, the “solvation free energy, 298 K” value by setting is: (in CN1CCCCC1=O) -2.81 kcal/mol; (in CN1CCN(C)C1=O) -2.56 kcal/mol; (in CN(C)C=O) -2.73 kcal/mol; (in CO) -2.62 kcal/mol; (in COC(C)(C)C) -3.55 kcal/mol; (in ClC(Cl)(Cl)Cl) -3.78 kcal/mol. The “solvation free energy, 298 K” value runs as follows: (in ClC=CCl) -3.78 kcal/mol; (in N#CCCCCC#N) -2.08 kcal/mol; (in N#Cc1ccccc1) -3 kcal/mol; (in NCCO) -1.24 kcal/mol; (in O) 1.2 kcal/mol; (in O=CN1CCOCC1) -2.22 kcal/mol. The “solvation free energy, 298 K” value was -2.41 kcal/mol (in O=Cc1ccco1); -3.02 kcal/mol (in OC1CCCCC1); -2.7 kcal/mol (in OCc1ccccc1); -2.39 kcal/mol (in OCc1ccco1); -3.84 kcal/mol (in S=C=S); -3.21 kcal/mol (in c1ccc2ncccc2c1).
Turning to `CC12CCC(=O)C=C1CCC1C2C(O)CC2(C)C1CCC2(O)C(=O)C(O)C(CCCCC(N)=O)C(N)=O` (stereo unspecified), the “solvation free energy, 298 K” value reads like this: (in C=CCCCCCCC=C) -29.8 kcal/mol; (in C=CCCCCCCCCCCCCCC) -27.4 kcal/mol; (in O) -33.7 kcal/mol.
On to `CCCCOC(=O)c1ccccc1C(=O)OCc1ccccc1`, for which the “solvation free energy, 298 K” value (in O) is -9.55 kcal/mol.
Still for that read-out and setting: as for `Clc1ccc(-c2cc(Cl)c(Cl)cc2Cl)cc1Cl`, the figure is -3.36 kcal/mol.
As for `ON=C1CCCCC1`, the “solvation free energy, 298 K” value (in CCCCCC) is -6.16 kcal/mol.
For the molecule `CCC(CC)(CC)CC`, the “solvation free energy, 298 K” value by setting is: (in CCCCCC) -5.88 kcal/mol; (in CO) -4.3 kcal/mol.
Turning to `CCCCCCc1cccc2ccccc12`, the “solvation free energy, 298 K” value (in OCCOCCO) was -8.95 kcal/mol.
In the case of `CC(C)(C)C`, the “solvation free energy, 298 K” value reads like this: (in C1COCCO1) -2.16 kcal/mol; (in CC(C)=O) -2.22 kcal/mol; (in CCCCCC) -2.77 kcal/mol; (in CCO) -2.2 kcal/mol; (in CO) -1.91 kcal/mol; (in O) 2.66 kcal/mol.
As for `Cc1[nH]n(-c2ccccc2)c(=O)c1C(=O)c1ccccc1`, the “solvation free energy, 298 K” value (in O) was -11.6 kcal/mol.
Turning to `CCCC(C)C`, the “solvation free energy, 298 K” value reads like this: (in Brc1ccccc1) -3.41 kcal/mol; (in C1CCCCC1) -3.86 kcal/mol; (in C1CCOC1) -3.7 kcal/mol; (in C1COCCO1) -3.03 kcal/mol; (in C=CCCCC) -3.84 kcal/mol; (in C=CCCCCCC) -3.73 kcal/mol. Moreover, the “solvation free energy, 298 K” value is, setting by setting: (in C=CCCCCCCCC) -3.64 kcal/mol; (in C=CCCCCCCCCCCCCCC) -3.33 kcal/mol; (in CC1COC(=O)O1) -1.98 kcal/mol; (in CC#N) -2.5 kcal/mol; (in CC(=O)N(C)C) -2.65 kcal/mol; (in CC(=O)O) -2.72 kcal/mol. Moreover, the “solvation free energy, 298 K” value was -2.84 kcal/mol (in CC(=O)c1ccccc1); -3.08 kcal/mol (in CC(C)=O); -3.72 kcal/mol (in CC(C)CC(C)(C)C); -3.28 kcal/mol under setting [1]; -3.23 kcal/mol (in CC(C)CCO); -3.02 kcal/mol (in CC(C)O). Moreover, the “solvation free energy, 298 K” value reads like this: (in CC(C)OC(C)C) -3.78 kcal/mol; (in CCBr) -3.88 kcal/mol; (in CCC#N) -2.84 kcal/mol; (in CCC(C)=O) -3.27 kcal/mol; (in CCCC#N) -3.05 kcal/mol; (in CCCC(=O)OCC) -3.46 kcal/mol. For the same molecule, the “solvation free energy, 298 K” value (in CCCC(C)=O) was -3.34 kcal/mol; the “solvation free energy, 298 K” value (in CCCCC) is -3.93 kcal/mol; the “solvation free energy, 298 K” value (in CCCCCC) was -3.87 kcal/mol; the “solvation free energy, 298 K” value (in CCCCCC(C)=O) is -3.35 kcal/mol; the “solvation free energy, 298 K” value (in CCCCCCC) was -3.78 kcal/mol; the “solvation free energy, 298 K” value (in CCCCCCCC) was -3.71 kcal/mol. For the same molecule, the “solvation free energy, 298 K” value (in CCCCCCCCC) is -3.67 kcal/mol; the “solvation free energy, 298 K” value (in CCCCCCCCCC) is -3.63 kcal/mol; the “solvation free energy, 298 K” value (in CCCCCCCCCCCC) was -3.52 kcal/mol; the “solvation free energy, 298 K” value (in CCCCCCCCCCCCCCCC) is -3.45 kcal/mol; the “solvation free energy, 298 K” value (in CCCCCCCCCOC(=O)c1ccccc1C(=O)OCCCCCCCCC) is -3.02 kcal/mol; the “solvation free energy, 298 K” value (in CCCCCCCCO) was -3.18 kcal/mol. Moreover, the “solvation free energy, 298 K” value reads like this: (in CCCCCCOC(C)=O) -3.42 kcal/mol; (in CCCCCO) -3.3 kcal/mol; (in CCCCO) -3.12 kcal/mol; (in CCCCOC(C)=O) -3.4 kcal/mol; (in CCCCOCCCC) -3.7 kcal/mol; (in CCCO) -3.01 kcal/mol. The “solvation free energy, 298 K” value runs as follows: (in CCN(CC)CC) -3.81 kcal/mol; (in CCO) -2.97 kcal/mol; (in CCOC(C)=O) -3.29 kcal/mol; (in CCOCC) -3.78 kcal/mol; (in CCOCCOCCOCC) -3.21 kcal/mol; (in CCOc1ccccc1) -3.26 kcal/mol. Further, the “solvation free energy, 298 K” value was -2.55 kcal/mol (in CN1CCCC1=O); -2.58 kcal/mol (in CN1CCCCC1=O); -2.52 kcal/mol (in CN(C)C=O); -2.88 kcal/mol (in CN(C)P(=O)(N(C)C)N(C)C); -2.24 kcal/mol (in CNC=O); -2.68 kcal/mol (in CO). Besides, the “solvation free energy, 298 K” value was -3.77 kcal/mol (in COC(C)(C)C); -3.14 kcal/mol (in COC(C)=O); -2.53 kcal/mol (in COCCO); -3.2 kcal/mol (in COc1ccccc1); -1.78 kcal/mol (in CS(C)=O); -3.64 kcal/mol (in Cc1ccc(C)cc1). The “solvation free energy, 298 K” value (in Cc1ccccc1) was -3.65 kcal/mol; the “solvation free energy, 298 K” value (in Cc1ccccn1) is -3.28 kcal/mol; the “solvation free energy, 298 K” value (in ClC(Cl)(Cl)Cl) was -3.85 kcal/mol; the “solvation free energy, 298 K” value (in ClC(Cl)Cl) is -3.72 kcal/mol; the “solvation free energy, 298 K” value (in ClCCCl) was -3.24 kcal/mol; the “solvation free energy, 298 K” value (in ClCCl) is -3.54 kcal/mol. The “solvation free energy, 298 K” value runs as follows: (in Clc1ccccc1) -3.62 kcal/mol; (in FC(F)(F)C(F)(F)C(F)(F)C(F)(F)C(F)(F)C(F)(F)C(F)(F)C(F)(F)F) -2.43 kcal/mol; (in FC(F)(F)C(F)(F)C(F)(F)C(F)(F)C(F)(F)C(F)(F)F) -2.53 kcal/mol; (in Fc1ccccc1) -3.63 kcal/mol; (in ICI) -1.94 kcal/mol; (in N#Cc1ccccc1) -2.91 kcal/mol. In addition, the “solvation free energy, 298 K” value was -2.28 kcal/mol (in Nc1ccccc1); 2.51 kcal/mol (in O); -3.16 kcal/mol (in O=C1CCCCC1); -2.1 kcal/mol (in O=C1CCCO1); -2.47 kcal/mol (in OCc1ccccc1); -3.82 kcal/mol (in S=C=S). Further, the “solvation free energy, 298 K” value by setting is: (in c1ccccc1) -3.61 kcal/mol; (in c1ccncc1) -3.06 kcal/mol.
In the case of `CCCCCCCO`, the “solvation free energy, 298 K” value reads like this: (in CC(C)CC(C)(C)C) -5.82 kcal/mol; (in CCCCCC) -5.59 kcal/mol; (in CCCCCCC) -5.59 kcal/mol; (in CCCCCCCCCCCCCCCC) -5.43 kcal/mol; (in CCCCCCO) -8.08 kcal/mol; (in CO) -7.6 kcal/mol. Also, the “solvation free energy, 298 K” value is -6.38 kcal/mol (in NC=O) and -4.24 kcal/mol (in O).
For `CCC(O)CC`, the “solvation free energy, 298 K” value (in O) is -4.35 kcal/mol.
For the molecule `C=C1CCC23C(C)CCC(C(C)C)C2C13` (stereo unspecified), the “solvation free energy, 298 K” value (in O) turned out to be 0.63 kcal/mol.
On the same count and under the same terms, as for `CCNc1nc(NCC)nc(OC)n1`, the figure is -10.6 kcal/mol; as for `O=C1c2ccccc2C(=O)c2c(NCCO)cccc21`, -14.2 kcal/mol; as for `C=CC1(C)CCC(=C(C)C)CC1C(=C)C` (stereo unspecified), -0.35 kcal/mol.
The same measure, in the same setting: the value for `CCCCOC(=O)c1ccccc1C(=O)OC(CC)CCCC` (stereo unspecified) was -6.71 kcal/mol; that for `CC(C)C(C)c1ccc(CC(=O)O)cc1` (stereo unspecified) was -7.99 kcal/mol.
Same read-out and setting: as for `CCCCC(C)O` (stereo unspecified), the figure is -4.28 kcal/mol.
With `CCCCCC#N`, the “solvation free energy, 298 K” value (in CCCCCCCCCCCCCCCC) is -4.68 kcal/mol; the “solvation free energy, 298 K” value (in CCCCCCCCO) is -5.54 kcal/mol; the “solvation free energy, 298 K” value (in O) was -3.28 kcal/mol; the “solvation free energy, 298 K” value (in [2H]O[2H]) was -3.25 kcal/mol.
On to `O=C1NC(=O)C(c2ccccc2)(c2ccccc2)N1`, for which, where the note is “in O”, the “solvation free energy, 298 K” value was -16.7 kcal/mol.
Consider `CCCCCCCCCCCCCCC`, for which, for the setting “in O”, the “solvation free energy, 298 K” value is 4.29 kcal/mol.
The same measure, in the same setting: as for `C1CNC1`, the figure is -5.56 kcal/mol; as for `O=Nc1c(O)ccc2ccccc12`, -7.31 kcal/mol.
Regarding `O=C(O)c1ccc(C(=O)O)cc1`, the “solvation free energy, 298 K” value (in CN1CCCC1=O) is -16.2 kcal/mol and the “solvation free energy, 298 K” value (in O) was -11.4 kcal/mol.
With `Cc1nc(N(C)C)nc(OC(=O)N(C)C)c1C`, the “solvation free energy, 298 K” value (in O) was -9.41 kcal/mol.
For `C=CCCC=C`, the “solvation free energy, 298 K” value was -3.36 kcal/mol (in C=CCCCCCCCCCCCCCC); -3.48 kcal/mol (in CCCCCCCCCCCCCCCC); -3.23 kcal/mol (in CN1CCCC1=O); -2.74 kcal/mol (in CS(C)=O); 0.97 kcal/mol (in O).
In the case of `BrCCBr`, the “solvation free energy, 298 K” value (in C1COCCO1) is -5.84 kcal/mol; the “solvation free energy, 298 K” value (in ClC(Cl)(Cl)Cl) is -5.33 kcal/mol; the “solvation free energy, 298 K” value (in O) was -2.2 kcal/mol.
Consider `CCCC(C)(C)O`, for which the “solvation free energy, 298 K” value by setting is: (in CCCCCCCC) -4.59 kcal/mol; (in CCCCCCCCCC) -4.54 kcal/mol; (in O) -3.92 kcal/mol.
`Clc1ccc2c(c1)Oc1c(Cl)c(Cl)c(Cl)c(Cl)c1O2`: the “solvation free energy, 298 K” value (in O) is -4.15 kcal/mol.
With `CC(C)OC(C)(C)C`, the “solvation free energy, 298 K” value reads like this: (in CC(=O)N(C)C) -3.75 kcal/mol; (in CCCCN(C=O)CCCC) -3.87 kcal/mol; (in CN1CCCCC1=O) -3.66 kcal/mol; (in CNC(C)=O) -3.62 kcal/mol; (in O) -1.01 kcal/mol.
Take `CCC(C)(O)CC`: the “solvation free energy, 298 K” value (in O) is -4.2 kcal/mol.
Still for that read-out and setting: as for `COCCN`, the figure is -6.55 kcal/mol.
Still for that read-out and setting: as for `Cc1ccc2ccccc2c1`, the figure is -2.18 kcal/mol.
On to `CCCCI`, for which the “solvation free energy, 298 K” value was -5.57 kcal/mol (in ClC(Cl)(Cl)Cl) and -0.25 kcal/mol (in O).

The record behind these values is the CombiSolv-Exp solvation set (Vermeire and Green 2021).
